Results published in patent US20260176289A1, “SMALL MOLECULE INHIBITORS OF KRAS PROTEINS” (Merck Sharp & Dohme LLC, priority 2022, published 2026).
Where two headings read alike, the source gives them in different places.

Assays:
KRAS-G12V = KRAS-G12V (Homo sapiens, UniProt P01116, G12V); assay: SOS-catalyzed nucleotide exchange assay (Procedure A, TR-FRET), KRAS-G12V; assay type: biochemical
In short: (§1)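 Inhibitors stabilizing the Bodipy-GDP state are detected as retained TR-FRET from a preformed biotinylated RAS/Tb-streptavidin complex. They are preincubated 60 min at room temperature, then human SOS and 3 mM GTP are added. G12V runs 90 min at 1.25 nM RAS/160 nM SOS. G12C (3 nM), WT (1 nM) and NRAS (1.25 nM) run 60 min with 40 nM SOS.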

KRAS-WT = KRAS-WT (Homo sapiens, UniProt P01116); assay: SOS-catalyzed nucleotide exchange assay (Procedure A, TR-FRET), KRAS-WT; assay type: biochemical
Sequence of KRAS-WT (P01116 with tags, fused parts or gaps isoform P01116-2): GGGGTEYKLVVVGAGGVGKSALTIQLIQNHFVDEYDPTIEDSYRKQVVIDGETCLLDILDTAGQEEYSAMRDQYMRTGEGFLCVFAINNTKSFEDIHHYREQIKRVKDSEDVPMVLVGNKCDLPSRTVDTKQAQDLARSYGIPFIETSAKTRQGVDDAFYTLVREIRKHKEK
In short: as §1

KRAS-G12D = KRAS-G12D (Homo sapiens, UniProt P01116, G12D); assay: SOS-catalyzed nucleotide exchange assay (Procedure A, TR-FRET), KRAS-G12D; assay type: biochemical
Sequence of KRAS-G12D (P01116 with tags, fused parts or gaps isoform P01116-2 G12D): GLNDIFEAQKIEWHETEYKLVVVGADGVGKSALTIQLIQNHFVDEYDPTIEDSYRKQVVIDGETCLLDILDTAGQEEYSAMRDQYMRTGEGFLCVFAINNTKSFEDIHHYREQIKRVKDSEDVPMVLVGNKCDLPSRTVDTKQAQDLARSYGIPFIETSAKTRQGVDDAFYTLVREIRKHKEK
In short: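 Signal ratio (520/495 nm, excitation 340 nm) reports Bodipy-GDP retention on biotinylated RAS after SOS-catalyzed exchange with 3 mM GTP. SOS was 40 nM, except 160 nM for G12V. Room-temperature exchange lasted 60 min (90 min for G12V), following a 60 min compound preincubation.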

KRAS-G13D = KRAS-G13D (Homo sapiens, UniProt P01116, G13D); assay: SOS-catalyzed nucleotide exchange assay (Procedure A, TR-FRET), KRAS-G13D; assay type: biochemical
Sequence of KRAS-G13D (P01116 with tags, fused parts or gaps isoform P01116-2 G13D): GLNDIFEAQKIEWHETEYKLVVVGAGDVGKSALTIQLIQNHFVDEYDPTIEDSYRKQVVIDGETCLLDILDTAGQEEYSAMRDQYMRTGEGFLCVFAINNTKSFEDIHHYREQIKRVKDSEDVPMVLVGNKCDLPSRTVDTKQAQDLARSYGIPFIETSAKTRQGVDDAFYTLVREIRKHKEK
Description: (§2) Procedure for SOS-Catalyzed Nucleotide Exchange Assay for KRAS-WT, G12C/D/V, G13D, HRAS, and NRAS (Procedure A)
(§3) Recombinant KRAS-G12C protein used in this assay has an additional triple mutation (C51S/C80L/C118S). Whereas KRAS-WT, G12D/V, G13D, HRAS and NRAS are in context of their WT protein sequence background. Specifically, the SOS-catalyzed nucleotide exchange assay utilizes a preformed TR-FRET complex containing a specific biotinylated RAS protein (KRAS-WT, G12C/V/D, G13D, HRAS, NRAS; described above) with Bodipy-GDP, and Terbium-streptavidin. Compounds are preincubated with this complex for 60 minutes. Subsequently, recombinant human SOS protein and unlabeled GTP are added to initiate the exchange reaction. Small molecule inhibitors stabilize the Bodipy-GDP complex whereas the untreated protein rapidly exchanges Bodipy-GDP for unlabeled GTP resulting in reduced TR-FRET signal.
(§4) To assemble the preformed TR-FRET complexes, each biotinylated RAS protein is diluted to 2 μM in an EDTA Buffer (20 mM HEPES pH 7.5, 50 mM sodium chloride, 10 mM EDTA, and 0.01% Tween) and incubated at room temperature for one hour. This mixture is then further diluted to 90 nM in an Assay Buffer (20 mM HEPES pH 7.5, 150 mM sodium chloride, 10 mM magnesium chloride, and 0.005% Tween) containing 15 nM of Terbium-Streptavidin (Invitrogen, catalog #PV3577) and 900 nM of Bodipy-GDP (Invitrogen, catalog #G22360) and incubated at room temperature for six hours. It should be noted that this preformed TR-FRET complex for each of the RAS protein were made ahead of time, aliquoted and stored at −80° C. until the day of the experiment.
(§5) Each test compound (10 mM stock in DMSO) is diluted in DMSO to make a final-10-point, 3-fold dilution and is acoustically dispensed into a 384-well assay plate (Corning, catalog #3820) using an Echo 550 (Labcyte). Each well of the assay plate receives 3 μL of a specific 3×RAS preformed TR-FRET complex and 3 μL of Assay Buffer and is incubated at room temperature for 60 minutes (preincubation time). Each well then receives 3 μL of 3×recombinant human SOS protein and GTP (Sigma, G8877) in Assay Buffer and is incubated at room temperature for 30 minutes (G13D), 60 minutes (KRAS WT/G12C/D, H/NRAS) or 90 minutes for G12V. The final reaction in each well of 9 μL consists of 3 mM GTP, specific Ras and SOS proteins in the following concentrations: KRAS-G12C/SOS=3 nM/40 nM, KRAS-WT and G12D/SOS=1 nM/40 nM, KRAS-G12V/SOS=1.25 nM/160 nM. KRAS-G13D/SOS=1.25 nM/0 nM, HRAS and NRAS=1.25 nM/40 nM.
(§6) The time-resolved fluorescence resonance energy transfer (TR-FRET) signal is measured on an Envision (PerkinElmer) plate reader: Excitation filter=340 nm; emission 1=495 nm; emission2=520 nm; dichroic mirror=D400/D505; delay time=[…]. The signal of each well is determined as the ratio of the emission at 520 nm to that at 495 nm. Percent effect of each well is determined after normalization to control wells containing DMSO (no effect) or a saturating concentration of inhibitor (max effect). The apparent effect as a function of compound concentration is fit to a four-parameter logistic equation.

[1] = target: KRAS-G12C (C51S/C80L/C118S) (Homo sapiens, UniProt P01116, C118S/C51S/C80L/G12C); assay: SOS-catalyzed nucleotide exchange assay (Procedure A, TR-FRET), KRAS-G12C; assay type: biochemical
Sequence of KRAS-G12C (C51S/C80L/C118S) (P01116 with tags, fused parts or gaps isoform P01116-2 G12C/C51S/C80L/C118S): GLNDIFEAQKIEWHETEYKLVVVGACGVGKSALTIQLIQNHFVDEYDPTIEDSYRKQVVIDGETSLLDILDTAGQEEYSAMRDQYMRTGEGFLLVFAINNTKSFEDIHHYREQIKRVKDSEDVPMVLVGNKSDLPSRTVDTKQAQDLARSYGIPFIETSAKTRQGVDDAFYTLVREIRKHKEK
Description: as §2, §3, §4, §5, §6

AsPC-1 cells = assay: Cellular phospho-ERK assay, AsPC-1 cells (homozygous KRAS-G12D); assay type: cell-based; conditions: Homo sapiens, read-out: AsPC1 pERK IC50
In short: (§7)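 10k–15k cells/well, o/n attach; cpd 2 h, 37 °C, 10-pt 1:3 from 30 μM final; lyse with protease/phosphatase inhibitors 30 min RT; multiplex SureFire p-ERK + total ERK; IC50 via 4PL on ratio.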

SW620 cells = assay: Cellular phospho-ERK assay, SW620 cells (homozygous KRAS-G12V); assay type: cell-based; conditions: Homo sapiens, SW-620, 2 hours compound incubation, read-out: SW620 pERK IC50
In short: as §7

MKN-1 cells = assay: Cellular phospho-ERK assay, MKN-1 cells (amplified wild-type KRAS); assay type: cell-based; conditions: Homo sapiens, 2 hours compound incubation, read-out: MKN1 pERK IC50
In short: as §7

[2] = nucleotide exchange, read-out: KRAS G12V GNE IC50
[3] = nucleotide exchange, read-out: KRAS WT GNE IC50
[4] = nucleotide exchange, read-out: KRAS G12D GNE IC50
[5] = nucleotide exchange, Procedure A, read-out: KRAS G13D GNE IC50
[6] = nucleotide exchange, Procedure A, read-out: KRAS G12C GNE IC50
[7] = ASPC1, 2 h, 2 hours compound incubation

Sequence of KRAS-G12V (P01116 with tags, fused parts or gaps isoform P01116-2 G12V): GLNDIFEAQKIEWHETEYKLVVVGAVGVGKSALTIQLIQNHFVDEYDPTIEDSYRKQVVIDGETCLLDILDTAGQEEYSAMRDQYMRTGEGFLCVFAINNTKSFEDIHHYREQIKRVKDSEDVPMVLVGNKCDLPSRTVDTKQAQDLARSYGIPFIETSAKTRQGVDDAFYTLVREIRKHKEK

Row | SMILES | IC50 (KRAS-G12V; [2]) | IC50 (KRAS-WT; [3]) | IC50 (KRAS-G12D; [4]) | IC50 (KRAS-G13D; [5]) | IC50 [1, 6] | IC50 (AsPC-1 cells; [7]) | IC50 (AsPC-1 cells; ASPC1, 2 h, KRAS-G12D, 2 hours) | IC50 (KRAS-G12V; KRAS G12V GNE IC50, nucleotide exchange) | IC50 (KRAS-WT; KRAS WT GNE IC50, nucleotide exchange) | IC50 (AsPC-1 cells; ASPC1, KRAS-G12D, 2 hours) | IC50 (KRAS-G12D; KRAS G12D GNE IC50, nucleotide exchange) | IC50 (KRAS-G13D) | IC50 [1] | IC50 (SW620 cells) | IC50 (MKN-1 cells)
1 | Cc1nc2[nH]nc(C)c2c(-c2nccc3c4c(N5CCOC[C@@](C)(O)C5)nc(OC[C@@]56CCCN5C[C@H](F)C6)nc4n(C)c23)c1C(F)(F)F [Ex-15, (6S)-4-(8-(3,6-dimethyl-5-(trifluoromethyl)-1H-pyrazolo[3,4-b]pyridin-4-yl)-2-(((2R,7aS)-2-fluorotetrahydro-1H-pyrrolizin-7a(5H)-yl)methoxy)-9-methyl-9H-pyrido[4′,3′:4,5]pyrrolo[2,3-d]pyrimidin-4-yl)-6-methyl-1,4-oxazepan-6-ol] | 4930 nM | 8020 nM | 9040 nM | 5380 nM | 1970 nM |  |  |  |  |  |  |  |  |  | 
2 | Cc1cc2[nH]ncc2c(-c2nccc3c2sc2nc(OC[C@@]45CCCN4C[C@H](F)C5)nc(NC4CCC4)c23)c1C(F)(F)F [Ex-191, N-cyclobutyl-2-(((2R,7aS)-2-fluorotetrahydro-1H-pyrrolizin-7a(5H)-yl)methoxy)-8-(6-methyl-5-(trifluoromethyl)-1H-indazol-4-yl)pyrido [4′,3′:4,5]thieno[2,3-d] pyrimidin-4-amine] | 5630 nM | 11100 nM | 11100 nM | 3690 nM | 423 nM | 8560 nM |  |  |  |  |  |  |  |  | 
3 | C=C(C)c1c(C)cc2[nH]ncc2c1-c1nccc2c1oc1nc(OC[C@]3(CN(C)C)CC3(F)F)nc(N3CCOC[C@@](C)(O)C3)c12 [Ex-293, (6S)-4-(2-(((R)-1-((dimethylamino)methyl)-2,2-difluorocyclopropyl)meth-oxy)-8-(6-methyl-5-(prop-1-en-2-yl)-1H-indazol-4-yl)pyrido[4′,3′:4,5]furo[2,3-d]pyrimidin-4-yl)-6-methyl-1,4-oxazepan-6-ol] | 203 nM | 455 nM | 149 nM | 296 nM | 136 nM |  | 1010 nM |  |  |  |  |  |  |  | 
4 | C[C@@]1(O)COCCN(c2nc(OC[C@@]34CCCN3C[C@H](F)C4)nc3sc4c(-c5c(-c6ccco6)c(Cl)cc6[nH]ncc56)nccc4c23)C1 [Ex-148, (6S)-4-(8-(6-chloro-5-(furan-2-yl)-1H-indazol-4-yl)-2-(((2R,7aS)-2-fluoro-tetrahydro-1H-pyr-rolizin-7a(5H)-yl)-methoxy)pyrido [4′,3′:4,5]thieno[2,3-d]pyrimidin-4-yl)-6-methyl-1,4-oxaze-pan-6-ol] | 9.35 nM | 27.6 nM | 6.61 nM | 20.4 nM | 112 nM | 91.4 nM |  |  |  |  |  |  |  |  | 
5 | C[C@@]1(O)COCCN(c2nc(OC[C@@]34CCCN3C[C@H](F)C4)nc3sc4c(-c5ccc(F)c6sc(N)c(C#N)c56)nccc4c23)C1 [Ex-275, 2-amino-7-fluoro-4-(2-(((2R,7aS)-2-fluoro-tetrahydro-1H-pyrrolizin-7a(5H)-yl)methoxy)-4-((S)-6-hydroxy-6-methyl-1,4-oxazepan-4-yl)pyrido[4′,3′:4,5]thi-eno[2,3-d]pyrimidin-8-yl)benzo[b]thiophene-3-carbonitrile] | 2950 nM | 1520 nM | 1310 nM | 1200 nM | 2220 nM |  |  |  |  |  |  |  |  |  | 
6 | Cc1cc2[nH]ncc2c(-c2nccc3c2[se]c2nc(OC[C@@]45CCCN4C[C@H](F)C5)nc(N4CCOC[C@@](C)(O)C4)c23)c1C(F)(F)F [Ex-288, (6S)-4-(2-(((2R,7aS)-2-fluorotetrahydro-1H-pyrrolizin-7a(5H)-yl)methoxy)-8-(6-methyl-5-(trifluoromethyl)-1H-indazol-4-yl)pyrido[4′,3′:4,5]selenopheno[2,3-d]pyrimidin-4-yl)-6-methyl-1,4-oxazepan-6-ol] |  |  |  |  |  |  |  | 25.9 nM | 69.1 nM | 374 nM | 34.6 nM | 50.7 nM | 22 nM |  | 
7 | Cc1cc2[nH]ncc2c(-c2nccc3c2sc2nc(OC[C@@]45CCCN4C[C@H](F)C5)nc(NC45CC(O)(C4)C5)c23)c1C(F)(F)F [Ex-187, 3-((2-(((2R,7aS)-2-fluoro-tetrahydro-1H-pyrrolizin-7a(5H)-yl)methoxy)-8-(6-methyl-5-(trifluorometh-yl)-1H-indazol-4-yl)pyrido [4′,3′:4,5]thieno[2,3-d]pyrimidin-4-yl)amino)-bicyclo[1.1.1]pentan-1-ol] | 170 nM | 499 nM | 390 nM | 223 nM | 72.6 nM | 3570 nM |  |  |  |  |  |  |  |  | 
8 | Cc1cc2[nH]ncc2c(-c2nncc3c2sc2nc(OC[C@@]45CCCN4C[C@H](F)C5)nc(N4CCOC[C@@](C)(O)C4)c23)c1C(F)(F)F [Ex-277, (6S)-4-(2-(((2R,7aS)-2-fluorotetrahydro-1H-pyrrolizin-7a(5H)-yl)methoxy)-8-(6-methyl-5-(trifluoromethyl)-1H-indazol-4-yl)pyrimido[5′,4′:4,5]thieno[2,3-d]pyridazin-4-yl)-6-methyl-1,4-oxazepan-6-ol] | 64.6 nM | 94.6 nM | 39.2 nM | 38 nM | 184 nM |  | 1100 nM |  |  |  |  |  |  |  | 
9 | CN(C)C[C@@]1(COc2nc(N3CCOC[C@@](C)(O)C3)c3c(n2)sc2c(-c4c(C5CC5)c(C(F)(F)F)cc5[nH]ncc45)nccc23)CC1(F)F [Ex-206, (6S)-4-(8-(5-cyclo-propyl-6-(trifluoro-methyl)-1H-inda-zol-4-yl)-2-(((R)-1-((dimethylamino)-methyl)-2,2-difluorocycloprop-yl)methoxy)pyrido [4′,3′:4,5]thieno [2,3-d]pyrimidin-4-yl)-6-methyl-1,4-oxazepan-6-ol] | 22.2 nM | 23.5 nM | 7.07 nM |  | 3.57 nM | 24 nM |  |  |  |  |  |  |  | 15.4 nM | 22.9 nM
